This assay concerns the target T1, SHP2 (Homo sapiens, UniProt Q06124).
T1 sequence (Q06124 1-593): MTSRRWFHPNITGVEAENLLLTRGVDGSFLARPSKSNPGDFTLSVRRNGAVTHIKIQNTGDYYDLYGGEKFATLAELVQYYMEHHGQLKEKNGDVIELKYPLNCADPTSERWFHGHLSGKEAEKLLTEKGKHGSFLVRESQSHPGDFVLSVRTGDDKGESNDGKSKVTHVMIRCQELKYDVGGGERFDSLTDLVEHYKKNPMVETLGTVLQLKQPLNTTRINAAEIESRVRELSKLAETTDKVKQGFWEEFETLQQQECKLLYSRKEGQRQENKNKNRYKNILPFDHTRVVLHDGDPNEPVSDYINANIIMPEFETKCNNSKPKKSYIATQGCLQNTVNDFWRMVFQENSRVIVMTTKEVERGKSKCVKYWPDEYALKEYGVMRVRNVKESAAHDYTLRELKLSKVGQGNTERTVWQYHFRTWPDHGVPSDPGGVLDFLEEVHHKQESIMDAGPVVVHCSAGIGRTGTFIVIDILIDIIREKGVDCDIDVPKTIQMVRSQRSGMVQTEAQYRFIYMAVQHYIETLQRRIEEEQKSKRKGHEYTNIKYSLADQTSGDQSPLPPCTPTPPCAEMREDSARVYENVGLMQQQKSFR
The experiment in a line: SHP2 allosteric inhibitor enzyme activity assay (DiFMUP fluorescence). The assay is classed as biochemical. As to conditions: class symbols. In short, it runs like this: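 SHP2 activated by 0.5 μM IRS1_pY1172(dPEG8)pY1222 peptide, 0.2 ng enzyme per well, 1 h at room temperature with compound (1 μM top, 3-fold series), then DiFMUP substrate 1 h. Buffer: 60 mM HEPES, 75 mM NaCl, 75 mM KCl, 0.05% BRIJ-35, 1 mM EDTA, 5 mM DTT. Fluorescence ex 340/em 450 nm; IC50 by variable-slope fit.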

In US20230192705A1, “SHP2 INHIBITORS, COMPOSITIONS AND USES THEREOF” (Betta Pharmaceuticals Co., Ltd, priority 2020, published 2023) one finds IC50 data, which are given here for 23 molecules.

One may read the IC50 as the concentration at which inhibition is half-maximal. `Cc1snnc1C1(c2n[nH]c3nc(N4CCC5(CC4)Cc4ccccc4[C@H]5N)[nH]c(=O)c23)CC1` [Example 241, (S)-6-(1-amino-1,3-dihydrospiro[indene-2,4′-piperidin]-1′-yl)-3-(1-(5-methyl-1,2,3-thiadiazol-4-yl)cyclopropyl)-1,5-dihydro-4H-pyrazolo[3,4-d]pyrimidin-4-one] had a concentration for half-maximal inhibition (IC50) not above 20 nM.
The same measure for `N[C@@H]1c2ccccc2CC12CCN(c1nc3[nH]nc(C4(c5ccnc(N6CCC6)c5Cl)CC4)c3c(=O)[nH]1)CC2` [Example 66, (S)-6-(1-amino-1,3-dihydrospiro[indene-2,4′-piperidin]-1′-yl)-3-(1-(2-(azetidin-1-yl)-3-chloropyridin-4-yl)cyclopropyl)-1,5-dihydro-4H-pyrazolo[3,4-d]pyrimidin-4-one]: not above 20 nM; for `N[C@@H]1c2ccccc2CC12CCN(c1nc3[nH]nc(C4=CS(=O)(=O)Nc5ccccc54)c3c(=O)[nH]1)CC2` [Example 183, (S)-6-(1-amino-1,3-dihydrospiro[indene-2,4′-piperidin]-1′-yl)-3-(2,2-dioxido-1H-benzo[c][1,2]thiazin-4-yl)-1,5-dihydro-4H-pyrazolo[3,4-d]pyrimidin-4-one]: not above 20 nM.
The molecule `C[C@@H]1OCC2(CCN(c3nc4[nH]nc(C5(c6cccc(F)c6)CC5)c4c(=O)[nH]3)CC2)[C@@H]1N` [Example 293, 6-((3S,4S)-4-amino-3-methyl-2-oxa-8-azaspiro[4.5]decan-8-yl)-3-(1-(3-fluorophenyl)cyclopropyl)-1,5-dihydro-4H-pyrazolo[3,4-d]pyrimidin-4-one] showed an IC50 of 20 to 60 nM.
The same measure for `N[C@@H]1c2ccccc2CC12CCN(c1nc3[nH]nc(C4(c5ccccc5F)CC4)c3c(=O)[nH]1)CC2` [Example 220, (S)-6-(1-amino-1,3-dihydrospiro[indene-2,4′-piperidin]-1′-yl)-3-(1-(2-fluorophenyl)cyclopropyl)-1,5-dihydro-4H-pyrazolo[3,4-d]pyrimidin-4-one]: not above 20 nM.
The same measure for `CN1CC=C(c2n[nH]c3nc(N4CCC5(CC4)Cc4ccccc4[C@H]5N)[nH]c(=O)c23)c2ccccc21` [Compound 178, (S)-6-(1-amino-1,3-dihydrospiro[indene-2,4′-piperidin]-1′-yl)-3-(1-methyl-1,2-dihydroquinolin-4-yl)-1,5-dihydro-4H-pyrazolo[3,4-d]pyrimidin-4-one, reference compound]: not above 20 nM; for `C[C@@H]1OCC2(CCN(c3nc4[nH]nc(C5(c6ccnc(N)c6Cl)CC5)c4c(=O)[nH]3)CC2)[C@@H]1N` [Example 291, 3-(1-(2-amino-3-chloropyridin-4-yl)cyclopropyl)-6-((3S,4S)-4-amino-3-methyl-2-oxa-8-azaspiro[4.5]decan-8-yl)-1,5-dihydro-4H-pyrazolo[3,4-d]pyrimidin-4-one]: 20 to 60 nM; for `Cn1cc2c(n1)CCC=C2c1n[nH]c2nc(N3CCC4(CC3)Cc3ccccc3[C@H]4N)[nH]c(=O)c12` [Example 121, (S)-6-(1-amino-1,3-dihydrospiro[indene-2,4′-piperidin]-1′-yl)-3-(2-methyl-6,7-dihydro-2H-indazol-4-yl)-1,5-dihydro-4H-pyrazolo[3,4-d]pyrimidin-4-one]: not above 20 nM.
Turning to `Cc1cccc(C2(c3n[nH]c4nc(N5CCC6(CC5)Cc5ccccc5[C@H]6N)[nH]c(=O)c34)CC2)n1` [Example 248, (S)-6-(1-amino-1,3-dihydrospiro[indene-2,4′-piperidin]-1′-yl)-3-(1-(6-methylpyridin-2-yl)cyclopropyl)-1,5-dihydro-4H-pyrazolo[3,4-d]pyrimidin-4-one], the IC50 is not above 20 nM.
The value for `Cc1ccccc1C1(c2n[nH]c3nc(N4CCC5(CC4)CO[C@@H](C)[C@H]5N)[nH]c(=O)c23)CC1` [Example 302, 6-((3S,4S)-4-amino-3-methyl-2-oxa-8-azaspiro[4.5]decan-8-yl)-3-(1-(o-tolyl)cyclopropyl)-1,5-dihydro-4H-pyrazolo[3,4-d]pyrimidin-4-one] was 20 to 60 nM.
The same measure for `N[C@@H]1c2ccccc2CC12CCN(c1nc3[nH]nc(C4(c5cccc(C6CCOCC6)c5)CC4)c3c(=O)[nH]1)CC2` [Example 40, (S)-6-(1-amino-1,3-dihydrospiro[indene-2,4′-piperidin]-1′-yl)-3-(1-(3-(tetrahydro-2H-pyran-4-yl)phenyl)cyclopropyl)-1,5-dihydro-4H-pyrazolo[3,4-d]pyrimidin-4-one]: not above 20 nM; for `CC1(C)CC=C(c2n[nH]c3nc(N4CCC5(CC4)Cc4ccccc4[C@H]5N)[nH]c(=O)c23)c2ccc(C(F)(F)F)nc21` [Example 145, (S)-6-(1-amino-1,3-dihydrospiro[indene-2,4′-piperidin]-1′-yl)-3-(8,8-dimethyl-2-(trifluoromethyl)-7,8-dihydroquinolin-5-yl)-1,5-dihydro-4H-pyrazolo[3,4-d]pyrimidin-4-one]: not above 20 nM.
For `N[C@@H]1c2ccccc2CC12CCN(c1nc3[nH]nc(C4=CCCc5sccc54)c3c(=O)[nH]1)CC2` [Example 117, (S)-6-(1-amino-1,3-dihydrospiro[indene-2,4′-piperidin]-1′-yl)-3-(6,7-dihydrobenzo[b]thiophen-4-yl)-1,5-dihydro-4H-pyrazolo[3,4-d]pyrimidin-4-one], the IC50 was not above 20 nM.
As to `N[C@@H]1c2ccccc2CC12CCN(c1nc3[nH]nc(C4(c5nn[nH]n5)CC4)c3c(=O)[nH]1)CC2` [Example 246, (S)-3-(1-(2H-tetrazol-5-yl)cyclopropyl)-6-(1-amino-1,3-dihydrospiro[indene-2,4′-piperidin]-1′-yl)-1,5-dihydro-4H-pyrazolo[3,4-d]pyrimidin-4-one], the half-inhibitory concentration (IC50) was not above 20 nM.
In the case of `C[C@@H]1OCC2(CCN(c3ncc4c(C5(c6ccccc6)CC5)n[nH]c4n3)CC2)[C@@H]1N` [Example 267, (3S,4S)-3-methyl-8-(3-(1-phenylcyclopropyl)-1H-pyrazolo[3,4-d]pyrimidin-6-yl)-2-oxa-8-azaspiro[4.5]decan-4-amine], the IC50 is 20 to 60 nM.
The value for `N[C@@H]1c2ccccc2CC12CCN(c1nc3[nH]nc(C4(c5cccc6c5CC(=O)N6)CC4)c3c(=O)[nH]1)CC2` [Example 82, (S)-6-(1-amino-1,3-dihydrospiro[indene-2,4′-piperidin]-1′-yl)-3-(1-(2-oxoindolin-4-yl)cyclopropyl)-1,5-dihydro-4H-pyrazolo[3,4-d]pyrimidin-4-one] was not above 20 nM; that for `N[C@@H]1c2ccccc2CC12CCN(c1nc3[nH]nc(C4(c5cnn(Cc6ccccc6)c5)CC4)c3c(=O)[nH]1)CC2` [Example 57, (S)-6-(1-amino-1,3-dihydrospiro[indene-2,4′-piperidin]-1′-yl)-3-(1-(1-benzyl-1H-pyrazol-4-yl)cyclopropyl)-1,5-dihydro-4H-pyrazolo[3,4-d]pyrimidin-4-one] was not above 20 nM.
The value for `N[C@@H]1c2ccccc2CC12CCN(c1nc3[nH]nc(C4(c5ccccc5Cl)CC4)c3c(=O)[nH]1)CC2` [Example 12, (S)-6-(1-amino-1,3-dihydrospiro[indene-2,4′-piperidin]-1′-yl)-3-(1-(2-chlorophenyl)cyclopropyl)-1,5-dihydro-4H-pyrazolo[3,4-d]pyrimidin-4-one] was not above 20 nM; that for `N[C@@H]1c2ccccc2CC12CCN(c1nc3[nH]nc(C4(c5cnccn5)CC4)c3c(=O)[nH]1)CC2` [Example 51, (S)-6-(1-amino-1,3-dihydrospiro[indene-2,4′-piperidin]-1′-yl)-3-(1-(pyrazin-2-yl)cyclopropyl)-1,5-dihydro-4H-pyrazolo[3,4-d]pyrimidin-4-one] was not above 20 nM.
The same measure for `C[C@@H]1OCC2(CCN(c3nc4[nH]nc(C5(c6cc7ccccc7[nH]6)CC5)c4c(=O)[nH]3)CC2)[C@@H]1N` [Example 285, 3-(1-(1H-indol-2-yl)cyclopropyl)-6-((3S,4S)-4-amino-3-methyl-2-oxa-8-azaspiro[4.5]decan-8-yl)-1,5-dihydro-4H-pyrazolo[3,4-d]pyrimidin-4-one]: more than 60 nM; for `N[C@@H]1c2ccccc2CC12CCN(c1nc3[nH]nc(C4(c5ccc6ncccc6c5)CC4)c3c(=O)[nH]1)CC2` [Example 14, (S)-6-(1-amino-1,3-dihydrospiro[indene-2,4′-piperidin]-1′-yl)-3-(1-(quinolin-6-yl)cyclopropyl)-1,5-dihydro-4H-pyrazolo[3,4-d]pyrimidin-4-one]: not above 20 nM.
As for `N[C@@H]1c2ccccc2CC12CCN(c1nc3[nH]nc(C4(c5ncccn5)CC4)c3c(=O)[nH]1)CC2` [Example 245, (S)-6-(1-amino-1,3-dihydrospiro[indene-2,4′-piperidin]-1′-yl)-3-(1-(pyrimidin-2-yl)cyclopropyl)-1,5-dihydro-4H-pyrazolo[3,4-d]pyrimidin-4-one], the IC50 was not above 20 nM.
The same measure for `N[C@@H]1c2ccccc2CC12CCN(c1nc3[nH]nc(C4(c5cccc(O)c5Cl)CC4)c3c(=O)[nH]1)CC2` [Example 50, (S)-6-(1-amino-1,3-dihydrospiro[indene-2,4′-piperidin]-1′-yl)-3-(1-(2-chloro-3-hydroxyphenyl)cyclopropyl)-1,5-dihydro-4H-pyrazolo[3,4-d]pyrimidin-4-one]: not above 20 nM.
